Test results taken from ChEMBL document CHEMBL1128801, “Synthesis and biological evaluation of 14-alkoxymorphinans.12.1 A phenethyl analogue of the -selective opioid receptor antagonist cyprodime” (Bioorg Med Chem Lett, 1995).
pEC50, pKi: −log10 of the molar value.

How the values were obtained:
[1] = species: Mus musculus; assay: Effective concentration required for in Vitro evaluation of agonist activity on mouse vas deferens preparation; assay type: functional
[2] = species: Mus musculus; assay: In Vitro evaluation of antagonist activity induced by naloxone on mouse vas deferens preparation; assay type: functional
[3] = target: Kappa-type opioid receptor (Cavia porcellus, UniProt P41144); assay: Binding affinity by its ability to displace [3H]-U-69,593 from kappa receptor in homogenates of guinea pig brain; assay type: tissue-based
Chain of Kappa-type opioid receptor (P41144 whole entry): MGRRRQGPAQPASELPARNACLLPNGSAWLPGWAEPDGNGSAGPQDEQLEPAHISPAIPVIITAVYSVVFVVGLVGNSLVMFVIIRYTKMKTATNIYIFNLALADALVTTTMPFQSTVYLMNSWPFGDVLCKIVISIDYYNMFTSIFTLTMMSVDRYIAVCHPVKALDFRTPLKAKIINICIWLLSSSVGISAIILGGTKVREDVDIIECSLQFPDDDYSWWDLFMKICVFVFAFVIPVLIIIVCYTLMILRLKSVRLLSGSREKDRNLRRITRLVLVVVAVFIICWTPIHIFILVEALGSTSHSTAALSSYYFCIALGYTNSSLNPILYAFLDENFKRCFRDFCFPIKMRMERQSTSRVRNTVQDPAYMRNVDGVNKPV

[4] = tested on: Rattus norvegicus; assay: Effective dose required for in vivo antinociceptive effect in rat when administered subcutaneously; assay type: functional; conditions: sc
[5] = species: Mus musculus; assay: Effective concentration of compound required for in vitro agonist activity on mouse vas deferens preparation; assay type: functional
[6] = species: Cavia porcellus; assay: Effective concentration of compound required for in vitro agonist potency in guinea-pig ileum myenteric plexus preparation (GPI); assay type: functional
[7] = species: Mus musculus; assay: In vitro evaluation of antagonist activity induced by naloxone on mouse vas deferens preparation; assay type: functional
[8] = species: Cavia porcellus; assay: In vitro evaluation of antagonistic activity induced by naloxone in guinea-pig ileum myenteric plexus preparation (GPI); assay type: functional
[9] = target: Mu-type opioid receptor (Cavia porcellus, UniProt P97266); assay: Binding affinity by its ability to displace [3H]DAMGO from mu receptor in homogenates of guinea pig brain; assay type: tissue-based
Chain of Mu-type opioid receptor (P97266 whole entry): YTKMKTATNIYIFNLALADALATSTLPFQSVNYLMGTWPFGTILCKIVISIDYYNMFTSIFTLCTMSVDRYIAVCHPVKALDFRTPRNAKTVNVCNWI

[10] = species: Mus musculus; assay: Effective concentration required for in vitro evaluation of agonist activity on mouse vas deferens preparation; assay type: functional
[11] = species: Cavia porcellus; assay: Effective concentration required for in vitro agonist potency in guinea-pig ileum myenteric plexus preparation (GPI); assay type: functional

`CC1(C)SSC(C)(C)[C@@H](NC(=O)[C@@H](N)Cc2ccc(O)cc2)C(=O)NCC(=O)N[C@@H](Cc2ccccc2)C(=O)N[C@H]1C(=O)O` was tested. Which pEC50 [1] did it give?
The pEC50 was 8.55.

And the Ke [2]?
Its Ke is 20.4 nM.

`COc1cccc2c1[C@]13CCN(CC4CC4)[C@H](C2)[C@]1(OC)CCC(=O)C3` [CYPRODIME BROMIDE] was tested. Which pKi [3] did it give?
Its pKi is 7.21.

Which ED50 [4] does the source give for `CN1CC[C@]23c4c5ccc(O)c4O[C@H]2[C@@H](O)C=C[C@H]3[C@H]1C5.Cl` [MORPHINE HYDROCHLORIDE] here?
The ED50 was 1.8 mg/kg.

`Br.COc1cccc2c1[C@]13CCN(CCc4ccccc4)C(C2)[C@]1(OC)CCC(=O)C3` was tested. Which pEC50 [5] did it give?
Its pEC50 is 7.93.

And the pEC50 [6]?
The pEC50 was 7.76.

What about the ED50 [4] of the same compound?
Its ED50 is 0.037 mg/kg.

What about the Ke [7] of the same compound?
Its Ke is 1.67 nM.

What about the Ke [8] of the same compound?
Its Ke is 0.54 nM.

What about the pKi [9] of the same compound?
The pKi was 9.05.

And the pKi [3]?
The pKi was 6.16.

What does the source list for `C[C@@H](NC(=O)[C@@H](N)Cc1ccc(O)cc1)C(=O)NCC(=O)N(C)[C@@H](Cc1ccccc1)C(=O)NCCO` [DAMGO]?
pEC50 [10]: 7.61; Ke [7]: 1.9 nM; Ke [8]: 1.6 nM; pEC50 [11]: 7.93

With `COc1cccc2c1[C@]13CCN(C)[C@H](C2)[C@]1(OC)CCC(=O)C3` as the compound, how does the ED50 [4] read?
Its ED50 is 0.021 mg/kg.

What about the pKi [9] of the same compound?
The pKi was 9.15.

And the pKi [3]?
Its pKi is 8.82.
